We go through 2 molecules from patent US4298739A, “Novel carbostyril derivatives” (priority 1977, dated 1981).

Series [1] deals with T1, cyclic AMP phosphodiesterase (Oryctolagus cuniculus, UniProt G1ST54).
T1 construct: the supernatant was collected to use it as a crude enzyme solution; from tissue; host or cells: rabbit platelets (from platelet-rich plasma), 100,000 xg supernatant, DEAE-cellulose fraction
T1 sequence (G1ST54 1-1128): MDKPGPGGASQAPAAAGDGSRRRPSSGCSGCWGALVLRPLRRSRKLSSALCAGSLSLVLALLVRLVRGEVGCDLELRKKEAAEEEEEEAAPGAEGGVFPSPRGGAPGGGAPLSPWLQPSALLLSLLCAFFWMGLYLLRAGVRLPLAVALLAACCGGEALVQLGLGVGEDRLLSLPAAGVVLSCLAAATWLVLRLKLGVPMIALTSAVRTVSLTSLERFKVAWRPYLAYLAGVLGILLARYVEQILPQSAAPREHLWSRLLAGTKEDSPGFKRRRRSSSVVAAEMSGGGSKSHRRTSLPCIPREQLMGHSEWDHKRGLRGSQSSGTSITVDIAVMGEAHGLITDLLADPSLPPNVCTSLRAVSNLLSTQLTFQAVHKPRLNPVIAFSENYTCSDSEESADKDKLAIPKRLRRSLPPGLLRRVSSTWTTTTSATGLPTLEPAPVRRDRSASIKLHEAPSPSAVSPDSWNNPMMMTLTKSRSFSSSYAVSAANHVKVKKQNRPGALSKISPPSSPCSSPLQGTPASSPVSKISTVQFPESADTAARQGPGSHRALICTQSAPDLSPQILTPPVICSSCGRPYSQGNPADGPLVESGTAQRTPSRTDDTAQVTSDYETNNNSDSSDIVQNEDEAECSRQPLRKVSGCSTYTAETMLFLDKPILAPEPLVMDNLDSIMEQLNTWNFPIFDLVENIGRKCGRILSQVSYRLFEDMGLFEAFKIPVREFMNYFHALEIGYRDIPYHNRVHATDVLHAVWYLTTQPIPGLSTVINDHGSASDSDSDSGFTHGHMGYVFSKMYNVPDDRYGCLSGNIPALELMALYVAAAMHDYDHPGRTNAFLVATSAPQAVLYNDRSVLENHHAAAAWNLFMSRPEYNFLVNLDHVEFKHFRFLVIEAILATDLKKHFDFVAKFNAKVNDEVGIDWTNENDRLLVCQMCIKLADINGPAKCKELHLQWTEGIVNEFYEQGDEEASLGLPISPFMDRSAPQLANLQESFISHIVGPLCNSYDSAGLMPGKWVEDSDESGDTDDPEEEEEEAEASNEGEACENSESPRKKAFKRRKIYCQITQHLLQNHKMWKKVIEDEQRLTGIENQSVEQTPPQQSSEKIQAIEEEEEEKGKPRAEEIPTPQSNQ
As to the kind of experiment: Obstructive action against cyclic AMP phosphodiesterase. Type of series: biochemical, rabbit. The following applies: 1.0 μmol cyclic AMP, pH 8.0, 30° C., read-out: phosphodiesterase obstruction rate. Here is the method:
The obstructive action against cyclic AMP phosphodiesterase was measured according to the activity measuring method described in "Biochimica et Biophysica Acta", Vol. 429, pp. 485-497 (1976) and "Biochemical Medicine", Vol. 10, pp. 301-311 (1974).
That is, for determining the obstructive activity against cyclic AMP phosphodiesterase, 10 ml of a solution obtained by adding 1 mmol of MgCl2 into 50 mmol of tris-hydrochloric acid buffer with pH 7.4 was added to the platelets obtained by further centrifuging the abovesaid rabbit PRP at 3,000 r.p.m. for 10 minutes, and the suspended platelets were ground by a Teflon potter type homogenizer. This was followed by two times of freezing and thawing treatment and 300-second fracturing with 200 watt supersonic waves. After additional 60-minute centrifugation with 100,000 xg, the supernatant was collected to use it as a crude enzyme solution.
10 Milliliters of this crude buffer solution was added to a 1.5×20 cm DEAE-cellulose column which has previously been buffered with 50 mmol of tris-acetate buffer (pH 6.0), followed by washing and elution with 30 ml of 50 mmol tris-acetate buffer, and this buffer solution was subjected to linear gradient elution with 0 to 0.5 moles of sodium acetate-tris-acetatebuffer. The flow rate was 0.5 ml/min, and 5 ml of each fraction was batched out. […] This fraction was used as cyclic AMP phosphodiesterase.
0.1 Milliliter of an aqueous solution of each test compound of a specified concentration was mixed with 40 mmol of tris-hydrochloric acid buffer (pH 8.0, containing 50 μg of cow serum albumin and 4 mmol of MgCl2) containing predetermined 1.0 μmol of cyclic AMP (tritium cyclic AMP), and 0.2 ml of this mixed solution was used as substrate solution.
0.2 Milliliter of the above-prepared cyclic AMP phosphodiesterase of a predetermined concentration was added to said substrate solution and the mixture was reaction at 30° C. for 20 minutes, producing tritium 5'-AMP from the tritium cyclic AMP.
The reaction system was then immersed in boiling water for 2 minutes to stop the reaction, and then this reaction solution was cooled in ice water and, for converting the produced tritium 5'-AMP into tritium adenosine, the solution was added with 0.05 ml (1 mg/ml) of snake poison as 5'-nucleotidase and reacted at 30° C. for 10 minutes. The whole amount of this reaction solution was then added to a cation exchange resin (AG 500 W×4, 200-400 meshes, manufactured by Bio-Rad Co., column size: 0.5×1.5 cm), and the produced tritium anodesine alone was allowed to combine, washed with 6 ml of distilled water and eluted with 1.5 ml of 3 N-ammonia water. The whole quantity of the elutant was added with 10 ml of a triton-toluene type scintillator and the produced tritium adenosine was measured by a liquid scintillation counter to determine the phosphodiesterase activity.
In this way, the phosphodiesterase activation value (Vs) of the test compounds of the respective concentrations was determined, and the phosphodiesterase obstruction rate (%) was determined from said activation value (Vs) and control value (Vc) (obtained from water not containing any test compound) from the following formula: [formula]

For series [2], the system named is rabbit platelet. As to the kind of experiment: ADP-induced aggregation in rabbit platelets (AG-II Aggregometer). Type of series: cell-based. The essentials: (§1)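 Rabbit citrated PRP, diluted with PPP to 300,000/mm^3 platelets for ADP or 450,000/mm^3 for collagen, was preincubated with compound 1 min at 37° C. before inducer was added. ADP at 7.5×10^-5 M or collagen supernatant in Auren Beronal buffer pH 7.35; transmittance change recorded, percent inhibition derived.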

Another series relates to Male mice. Put plainly: Acute toxicity test, oral administration to mice. The series is classed as in vivo. As to the method: The test compounds were administered orally to the mice and LD50 (mg/kg) of the compounds was determined.
Series [3] relates to rabbit platelet. As to the kind of experiment: Collagen-induced aggregation in rabbit platelets (AG-II Aggregometer). Type of series: cell-based. A digest of the protocol: as §1

With `CC(C)Cn1c(=O)n(C)c(=O)c2[nH]cnc21` [1-Methyl-3-isobutylxanthine, 1-methyl-3-isobutylxanthine, reference compound], in series [1] (10^-4 mole), the inhibition at 100 µM was 98.5%. Moreover, the inhibition at 10 µM in series [1] (10^-5 mole) amounted to 85.7%. Moreover, in series [1] (10^-6 mole), the inhibition at 1 µM amounted to 67.4%. The inhibition at 0.1 µM in series [1] (10^-7 mole) amounted to 3.2%.

`O=C1CCc2cc(OCCCC(=O)Nc3c(Cl)cccc3Cl)ccc2N1` [compound 21, 6-[3-(o,o-Dichloroanilinocarbonyl)propoxy]-3,4-dihydrocarbonstyril]: the “Inhibition effect on ADP-induced aggregation in rabbit platelet” value is recorded as 36.8% with rabbit platelet [2] (10^-4 mole) and 5.3% with rabbit platelet [2] (10^-5 mole). This molecule also registered an LD50 with Male mice greater than 1000 mg. The “Inhibition effect on collagen induced aggregation in rabbit platelet” value with rabbit platelet [3] (10^-4 mole) stood at 95.1%; in the series with rabbit platelet [3] (10^-5 mole), 27.6%.
